IC50 and solubility data for 16 compounds are collected here from ChEMBL document CHEMBL4351023, “Novel N-benzylpiperidine carboxamide derivatives as potential cholinesterase inhibitors for the treatment of Alzheimer's disease” (Eur J Med Chem, 2019).

In one data set the target is Acetylcholinesterase (Electrophorus electricus, UniProt O42275). Put plainly: Inhibition of Electrophorus electricus AChE using acetylthiocholine iodide as substrate by Ellman's method. (DTNB colorimetry detects thiols as they appear.)
Another data set addresses Cholinesterase (Equus caballus, UniProt P81908). Put plainly: Inhibition of BuChE in equine serum using Butyrylthiocholine iodide as substrate by Ellman's method. Format: cell-free.
A further data set relates to SH-SY5Y. Put plainly: cells. The following applies: Homo sapiens, 72 h. Format: ADME, cell-based.
Data set [1] can be described thus: Solubility of compound in <1 % DMSO. It counts as physicochemical.
The nature of data set [2]: Solubility of compound in water at 10 mM. Conditions: buffer, 10000 µM. It counts as physicochemical.

The term IC50 denotes the point on the concentration scale where inhibition reaches its midpoint.

Bounds are passed on as bounds.

Cholinesterase, sequence (P81908 whole entry): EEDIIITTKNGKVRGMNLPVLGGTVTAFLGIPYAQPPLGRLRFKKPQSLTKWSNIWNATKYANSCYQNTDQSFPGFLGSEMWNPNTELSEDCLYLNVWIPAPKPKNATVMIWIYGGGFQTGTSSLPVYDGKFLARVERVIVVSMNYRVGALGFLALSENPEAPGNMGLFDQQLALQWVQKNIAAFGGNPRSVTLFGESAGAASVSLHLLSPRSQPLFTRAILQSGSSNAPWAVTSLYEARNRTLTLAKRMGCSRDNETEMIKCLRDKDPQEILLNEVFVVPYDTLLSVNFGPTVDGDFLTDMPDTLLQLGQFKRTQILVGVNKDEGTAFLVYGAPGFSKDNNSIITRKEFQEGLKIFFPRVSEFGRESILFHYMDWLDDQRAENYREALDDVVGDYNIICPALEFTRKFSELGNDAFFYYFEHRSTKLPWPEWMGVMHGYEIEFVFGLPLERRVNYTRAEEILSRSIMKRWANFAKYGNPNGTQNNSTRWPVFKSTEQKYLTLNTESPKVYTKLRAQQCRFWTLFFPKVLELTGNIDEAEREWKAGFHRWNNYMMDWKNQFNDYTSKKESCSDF
Acetylcholinesterase, sequence (O42275 whole entry): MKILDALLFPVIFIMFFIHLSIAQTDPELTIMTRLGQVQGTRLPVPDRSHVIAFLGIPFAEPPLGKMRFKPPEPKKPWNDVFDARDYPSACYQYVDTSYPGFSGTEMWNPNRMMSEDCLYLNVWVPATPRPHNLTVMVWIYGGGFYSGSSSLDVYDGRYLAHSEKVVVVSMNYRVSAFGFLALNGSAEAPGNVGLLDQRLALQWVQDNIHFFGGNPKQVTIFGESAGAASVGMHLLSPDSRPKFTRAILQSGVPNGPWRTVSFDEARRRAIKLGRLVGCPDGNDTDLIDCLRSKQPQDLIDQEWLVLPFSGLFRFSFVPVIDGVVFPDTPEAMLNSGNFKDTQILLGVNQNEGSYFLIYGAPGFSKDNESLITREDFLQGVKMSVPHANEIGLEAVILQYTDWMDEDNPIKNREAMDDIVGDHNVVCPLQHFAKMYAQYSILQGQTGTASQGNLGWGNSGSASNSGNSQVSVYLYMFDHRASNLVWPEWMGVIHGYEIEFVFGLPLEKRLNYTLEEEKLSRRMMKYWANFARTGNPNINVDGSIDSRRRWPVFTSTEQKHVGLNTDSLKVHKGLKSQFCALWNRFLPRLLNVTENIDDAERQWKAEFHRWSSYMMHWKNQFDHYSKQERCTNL

For the compound `O=C(NCCc1c[nH]c2ccccc12)C1CCN(Cc2ccccc2)CC1`, the IC50 on Acetylcholinesterase is 25.6 µM; against Cholinesterase, more than 100 µM; in the data set on SH-SY5Y it was 40.5 µM. Also, the solubility result in data set [1] is “Soluble”; in data set [2] it was “Insoluble”.

Take `COc1cc2c(cc1OC)-c1nc(NC(=O)C3CCN(Cc4ccccc4)CC3)sc1C2`: the IC50 on Cholinesterase was more than 100 µM; with SH-SY5Y, 31.3 µM. In addition, the results for the solubility entry in data set [1] and in data set [2] were “Soluble” and “Insoluble”, respectively.

As for `Cc1c(NC(=O)C2CCN(Cc3ccccc3)CC2)c(=O)n(-c2ccccc2)n1C`, the IC50 was 5.94 µM on Acetylcholinesterase, more than 100 µM against Cholinesterase and more than 100 µM in the data set with SH-SY5Y. The results for the solubility result in data set [1] and in data set [2] were “Soluble” and “Insoluble”, respectively.

`O=C(Nc1nccs1)C1CCN(Cc2ccccc2)CC1`: the IC50 on Acetylcholinesterase is 51.1 µM; at Cholinesterase, more than 100 µM; with SH-SY5Y it was 76.6 µM. Besides, the solubility result in data set [1] is “Soluble”; in data set [2] it was “Insoluble”.

On to `O=C(NC1CCCc2ccccc21)C1CCN(Cc2ccccc2)CC1` (stereo not given), for which the results for the IC50 on Acetylcholinesterase, against Cholinesterase and with SH-SY5Y were more than 100 µM, more than 100 µM and 99.3 µM, respectively. For the same compound, the solubility entry in data set [1] is on record as “Soluble”; in data set [2], “Insoluble”.

On to `O=C(NCCN1CCCCC1)C1CCN(Cc2ccccc2)CC1`, for which the IC50 against Acetylcholinesterase is 82.1 µM; against Cholinesterase, more than 100 µM; in the data set on SH-SY5Y, more than 100 µM. Also, the solubility entry in data set [1] is given as “Soluble”; in data set [2] it was “Insoluble”.

Regarding `O=C(NCc1ccccn1)C1CCN(Cc2ccccc2)CC1`, the IC50 is 30.9 µM on Acetylcholinesterase, more than 100 µM on Cholinesterase and more than 100 µM with SH-SY5Y. In addition, the solubility entry in data set [1] is “Soluble”; in data set [2], “Insoluble”.

Take `O=C(NCCNc1cccc2ccccc12)C1CCN(Cc2ccccc2)CC1`: the values for the IC50 against Acetylcholinesterase, against Cholinesterase and in the data set on SH-SY5Y were 14 µM, more than 100 µM and 13.6 µM, respectively. For the same compound, the results for the solubility result in data set [1] and in data set [2] were “Soluble” and “Insoluble”, respectively.

As to `COc1cc(CCNC(=O)C2CCN(Cc3ccccc3)CC2)cc(OC)c1OC`, the IC50 at Acetylcholinesterase, at Cholinesterase and in the data set on SH-SY5Y was more than 100 µM in each case. The solubility entry is recorded as “Soluble” in data set [1] and “Insoluble” in data set [2].

Regarding `O=C(NCCN1CCOCC1)C1CCN(Cc2ccccc2)CC1`, the IC50 at Acetylcholinesterase is more than 100 µM; against Cholinesterase, more than 100 µM; in the data set on SH-SY5Y, 73.4 µM. The solubility result in data set [1] is recorded as “Soluble”; in data set [2] it was “Insoluble”.

For `O=C(NCCc1c[nH]cn1)C1CCN(Cc2ccccc2)CC1`, the IC50 against Acetylcholinesterase, on Cholinesterase and with SH-SY5Y was more than 100 µM each time. Further, the solubility result is reported as “Soluble” in data set [1] and “Insoluble” in data set [2].

Take `O=C(NCc1ccncc1)C1CCN(Cc2ccccc2)CC1`: the figures for the IC50 against Acetylcholinesterase, against Cholinesterase and with SH-SY5Y were 58.2 µM, more than 100 µM and 3.37 µM, respectively. Further, the solubility entry in data set [1] is given as “Soluble”; in data set [2], “Insoluble”.

For `O=C(NCc1cccnc1)C1CCN(Cc2ccccc2)CC1`, the IC50 against Acetylcholinesterase is 58.9 µM; on Cholinesterase, more than 100 µM; in the data set on SH-SY5Y it was more than 100 µM. Besides, the solubility entry in data set [1] was “Soluble”; in data set [2] it was “Insoluble”.

As to `O=C(NCc1ccco1)C1CCN(Cc2ccccc2)CC1`, the IC50 at Acetylcholinesterase, at Cholinesterase and in the data set with SH-SY5Y was more than 100 µM in each case. Also, the solubility result in data set [1] is reported as “Soluble”; in data set [2] it was “Insoluble”.

Turning to `COc1ccccc1CNC(=O)C1CCN(Cc2ccccc2)CC1`, the IC50 is 44.4 µM against Acetylcholinesterase, more than 100 µM against Cholinesterase and 50.9 µM in the data set with SH-SY5Y. Also, the solubility entry is given as “Soluble” in data set [1] and “Insoluble” in data set [2].

Consider `COc1cc2c(cc1OC)C(=O)C(CC1CCN(Cc3ccccc3)CC1)C2` (stereo not given) [DONEPEZIL], for which, in the data set on SH-SY5Y, the IC50 is 95.1 µM. This counts as double-digit micromolar.
